The record followed here is patent publication US11944623B2, “Modulators of Kv3 channels to treat pain” (Autifony Therapeutics Limited, priority 2015, dated 2024).

Each structure is given as a SMILES string.

Series [1] concerns rat model of neuropathic pain. The experiment in a line: Neuropathic pain model (partial ligation of the sciatic nerve): paw withdrawal to mechanical pressure and cold (10° C.), general observations. Format: in vivo. The note with it: for changes in contralateral paw withdrawals and latencies: just attained significance at 3 hours on mechanical. How it is done:
(§1) The efficacy of Compounds 1, 2, 3 and 4 was investigated using rat models of neuropathic and/or persistent inflammatory pain.
(§2) Subjects comprised male, Wistar Hanover rats, 6 animals per group (225±2 g for Compound 1 studies and Compound 2 studies; 214±1 g for Compound 3 studies; 236±1 g for Compound 4 studies).
(§3) Vehicle (12% Captisol®; 0.5% w/v HPMC and 0.1% w/v Tween-80; 5 ml/kg via the intraperitoneal route) was prepared using autoclaved deionized water not more than one week prior to use.
(§4) The details of the studies performed are outlined in Table 1.
(§5) The control for the neuropathic pain model was lamotrigine, administered at 30 mg/kg via oral delivery. The control for the inflammatory pain model was diclofenac, administered at 30 mg/kg via oral delivery. Statistical analysis was performed using one-way ANOVA, and comparisons were performed with time-matched vehicle group using Tukey's HSD test wherein * p<0.05, ** p<0.01, *** p<0.001.
(§6) Treatment groups were randomised and blinded. Groups of 6 rats were used.
Neuropathic pain was induced by partial ligation of the sciatic nerve. Briefly, the rats were anaesthetised (isoflurane/O2 inhalation), the left sciatic nerve exposed at mid-thigh level through a small incision and ⅓ to ½ of the nerve thickness tightly ligated within a 7.0 silk suture. The wound was closed with surgical glue. Animals were allowed to recover and tested 12-15 days following surgery.
Withdrawal thresholds or latencies were measured on both the ipsilateral (ligated) and contralateral (non-ligated) paws, prior to (predose) and then up to 24 h following drug or vehicle administration.
Pre-dose behavioural measurements were obtained by measuring paw withdrawals 14 days following nerve ligation; before the initiation of drug treatment. Following treatment, further readings were taken at 1, 3, 6 and 24 hour after administration.
(§7) Mechanical hyperalgesia was examined in a model of neuropathic pain by measuring paw withdrawal thresholds (PWT) to increasing mechanical force applied to the dorsal surface of the rat paw using an Analgesymeter (Ugo-Basile, Milan) equipped with a wedge-shaped probe (area 1.75 mm^2). Cut-off was set at 250 g and the end-point was taken as withdrawal of the hind paw. Both ipsilateral and contralateral paw withdrawal readings were taken.
(§8) Cold sensitivity was assessed using a commercially available cold-plate (Ugo Basile, Milan). The cold plate was allowed to stabilize for 5 minutes at the set temperature prior to testing. Paw withdrawal latencies (PWL) were determined with the cold-plate set at 10° C. The animals were lightly restrained and each hind paw in turn placed onto the surface of the cold-plate. The end point was taken as the withdrawal of the paw and recorded as the withdrawal latency for the ipsilateral and the contralateral paw. A maximum cut-off of 30 seconds was used for each paw.
(§9) In addition to behavioural pain readings, each rat was observed throughout the study for changes in general behaviour.
(§10) Data were expressed as withdrawal threshold (g) or withdrawal latencies (s) and percentage reversals calculated according to the following formula: […]
(§11) Statistical analysis was carried out on withdrawal threshold readings using ANOVA with repeated measures followed by Tukey's HSD test. The level for statistical significance was set as p<0.05.

Series [2] concerns rat model of persistent inflammatory pain. The experiment in a line: Persistent inflammatory pain model (intraplantar FCA): paw withdrawal to mechanical pressure and cold (10° C.), general observations. Format: in vivo. The note with it: for behavioural changes in the rats (general observations): rat, in vivo; for rats with noticeable flaccidity: 1-6h post-dose. Here is the method:
as §1, §2, §3, §4, §5, §6
Mechanical hyperalgesia was examined in a model of persistent inflammatory pain. The hyperalgesia was induced by an intraplantar injection (25 μl) of Freund's Complete Adjuvant (FCA) into the left hind paw.
To assess the effect of the test compound, paw withdrawal thresholds or latencies were measured on both the ipsilateral (FCA-injected) and contralateral (non-injected) paws, prior to (naïve) and 24 hours following FCA injection (predose), and then at 1, 3, 6 and 24 hours after drug or vehicle administration.
as §7, §8, §9, §10, §11

A further series deals with T1, Human Nav1.7 channels (Homo sapiens, UniProt Q15858).
T1 construct: expressed in transfected cells
The experiment in a line: Nav1.7 QPatch assay. To be noted: 10 µM concentration (N=3). Format: cell-based. How it is done:
Human Nav1.7 channels were stably expressed in a HEK293 cell line. Electrophysiological recordings were made at room temperature using an automated patch clamp platform (QPatch, Sophion Biosciences).
The QPatch assay was carried out at room temperature using the QPatch platform (Sophion). On the day of the experiment cells were cultured according to standard cell preparation for QPatch. Internal and external physiological solutions were freshly prepared prior to the assay. The standard extracellular solution contained 145 mM NaCl, 4 mM KCl, 2 mM CaCl2, 2 mM MgCl2, 10 mM HEPES and 10 mM glucose; the pH was adjusted to 7.4 with NaOH, and the osmolarity measured as 314mOsm/L. The standard intracellular solution contained 140 mM CsF, 10 mM NaCl, 5 mM CsOH, 1 mM EGTA, 10 mM HEPES; the pH was adjusted to 7.25 with CsOH, and the osmolarity measured as 293mOsm/L.
A series of 40 voltage pulses (from −120 mV to 0 mV, 2.4 ms long at 117 Hz) were applied every 60 s in control (twice), compound (five times), standard blocker (twice) and washout (twice). The % inhibition values were calculated by normalising the data relative to the 1st pulse (P1) and by calculating the ratio between the 40th pulse versus the 1st pulse (P40/1). Series resistance and quality of seals were monitored during the experiments. Sophion QPatch Assay Software 5.0 was used to analyse and plot all the graphs. 10 μM of the test compound was applied followed by 1 μM TTX (standard blocker), followed by saline (washout). Compounds were diluted in physiological solutions at the required concentration with a maximum of 0.1% of DMSO.

The target of series [3] is T2, human BK (hKCa1.1/β1) potassium channel (Homo sapiens, UniProt Q12791).
T2 construct: expressed in transfected cells; host or cells: CHO cell line
The series is described as follows: BK QPatch HT assay. To be noted: 10 µM concentration (N=3). Format: cell-based. Here is the method: The effects of compounds on cloned human BK (hKCa1.1/β1) potassium channel (encoded by the human KCNMA1 and KCNMB1 genes) were examined in a CHO cell line using a QPatch HT® (Sophion Bioscience A/S, Denmark) assay. Onset and steady-state inhibition of hBK currents were measured using a voltage pulse pattern with a depolarizing test pulse (+100 mV amplitude, 200 ms duration) at 10 s intervals from a holding potential of −80 mV. The peak amplitude of the delayed outward current was measured for each test pulse. The compounds were evaluated at 10 μM in three cells for each compound, after a 3 minute compound application. The steady state inhibition produced by each compound was calculated.
On the technique in general: In patch-clamp work, channel activity is measured electrically.

Where [4] appears, read: Study 1, 30 mg/kg i.p., 1 hour post-dose.
Where [5] appears, read: Study 1, 60 mg/kg i.p., 1 hour post-dose.
The mark [6] stands for this setting: Study 1 of each compound, 30 mg/kg i.p., 3 hours post-dose.
Where [7] appears, read: Study 2, 10 mg/kg i.p., 3 hours post-dose.
[8] abbreviates: Study 2, 30 mg/kg i.p., 3 hours post-dose.
Where [9] appears, read: Study 2, 60 mg/kg i.p., 3 hours post-dose.
The mark [10] stands for this setting: 10 mg/kg i.p., 3 hours post-dose.
Setting [11] is: 30 mg/kg i.p., 3 hours post-dose.
Where [12] appears, read: 60 mg/kg i.p., 1 hour post-dose.
[13] abbreviates: 60 mg/kg i.p., 3 hours post-dose.
Where [14] appears, read: Study 1 of each compound (Table 1), 60 mg/kg i.p., 3 hours post-dose.
The mark [15] stands for this setting: 30 mg/kg i.p., time not stated (peak reversal at 1-3 h post-dose).

T2 sequence (Q12791 whole entry): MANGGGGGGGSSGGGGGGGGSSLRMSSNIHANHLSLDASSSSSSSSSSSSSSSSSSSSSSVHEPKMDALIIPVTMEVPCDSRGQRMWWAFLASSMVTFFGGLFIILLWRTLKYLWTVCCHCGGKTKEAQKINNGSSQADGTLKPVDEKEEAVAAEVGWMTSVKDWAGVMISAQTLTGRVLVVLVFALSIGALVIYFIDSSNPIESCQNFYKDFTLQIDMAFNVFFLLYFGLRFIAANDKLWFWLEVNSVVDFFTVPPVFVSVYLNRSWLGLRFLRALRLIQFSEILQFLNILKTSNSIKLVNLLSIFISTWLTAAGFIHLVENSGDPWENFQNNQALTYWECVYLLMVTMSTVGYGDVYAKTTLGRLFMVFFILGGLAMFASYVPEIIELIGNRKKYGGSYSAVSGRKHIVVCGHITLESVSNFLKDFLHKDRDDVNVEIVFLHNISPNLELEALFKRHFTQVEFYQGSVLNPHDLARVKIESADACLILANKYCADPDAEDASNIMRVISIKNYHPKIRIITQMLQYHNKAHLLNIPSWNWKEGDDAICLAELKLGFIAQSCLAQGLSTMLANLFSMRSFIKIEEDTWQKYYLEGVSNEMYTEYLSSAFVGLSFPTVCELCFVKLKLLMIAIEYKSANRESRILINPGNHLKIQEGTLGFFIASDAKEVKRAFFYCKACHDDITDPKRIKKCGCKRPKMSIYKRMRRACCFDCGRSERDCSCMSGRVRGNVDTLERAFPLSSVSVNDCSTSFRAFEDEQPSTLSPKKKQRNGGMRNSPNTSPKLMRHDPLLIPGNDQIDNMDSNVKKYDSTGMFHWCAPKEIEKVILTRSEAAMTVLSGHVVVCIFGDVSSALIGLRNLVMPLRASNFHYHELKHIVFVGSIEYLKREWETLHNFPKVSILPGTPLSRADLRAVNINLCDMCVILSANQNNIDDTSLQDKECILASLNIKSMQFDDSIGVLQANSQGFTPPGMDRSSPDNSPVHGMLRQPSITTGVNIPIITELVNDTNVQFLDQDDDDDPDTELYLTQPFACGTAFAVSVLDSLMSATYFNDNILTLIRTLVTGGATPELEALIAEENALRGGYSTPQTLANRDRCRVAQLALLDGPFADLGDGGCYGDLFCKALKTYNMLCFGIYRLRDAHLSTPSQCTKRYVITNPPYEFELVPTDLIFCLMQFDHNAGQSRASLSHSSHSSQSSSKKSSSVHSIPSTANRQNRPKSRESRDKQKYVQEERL
T2 sequence (Q16558 whole entry partner): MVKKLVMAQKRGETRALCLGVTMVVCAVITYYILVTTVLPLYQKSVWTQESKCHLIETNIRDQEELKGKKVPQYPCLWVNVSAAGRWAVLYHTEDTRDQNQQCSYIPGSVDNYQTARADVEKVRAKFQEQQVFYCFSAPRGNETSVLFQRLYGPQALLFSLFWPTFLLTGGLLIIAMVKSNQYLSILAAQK
T1 sequence (Q15858 whole entry): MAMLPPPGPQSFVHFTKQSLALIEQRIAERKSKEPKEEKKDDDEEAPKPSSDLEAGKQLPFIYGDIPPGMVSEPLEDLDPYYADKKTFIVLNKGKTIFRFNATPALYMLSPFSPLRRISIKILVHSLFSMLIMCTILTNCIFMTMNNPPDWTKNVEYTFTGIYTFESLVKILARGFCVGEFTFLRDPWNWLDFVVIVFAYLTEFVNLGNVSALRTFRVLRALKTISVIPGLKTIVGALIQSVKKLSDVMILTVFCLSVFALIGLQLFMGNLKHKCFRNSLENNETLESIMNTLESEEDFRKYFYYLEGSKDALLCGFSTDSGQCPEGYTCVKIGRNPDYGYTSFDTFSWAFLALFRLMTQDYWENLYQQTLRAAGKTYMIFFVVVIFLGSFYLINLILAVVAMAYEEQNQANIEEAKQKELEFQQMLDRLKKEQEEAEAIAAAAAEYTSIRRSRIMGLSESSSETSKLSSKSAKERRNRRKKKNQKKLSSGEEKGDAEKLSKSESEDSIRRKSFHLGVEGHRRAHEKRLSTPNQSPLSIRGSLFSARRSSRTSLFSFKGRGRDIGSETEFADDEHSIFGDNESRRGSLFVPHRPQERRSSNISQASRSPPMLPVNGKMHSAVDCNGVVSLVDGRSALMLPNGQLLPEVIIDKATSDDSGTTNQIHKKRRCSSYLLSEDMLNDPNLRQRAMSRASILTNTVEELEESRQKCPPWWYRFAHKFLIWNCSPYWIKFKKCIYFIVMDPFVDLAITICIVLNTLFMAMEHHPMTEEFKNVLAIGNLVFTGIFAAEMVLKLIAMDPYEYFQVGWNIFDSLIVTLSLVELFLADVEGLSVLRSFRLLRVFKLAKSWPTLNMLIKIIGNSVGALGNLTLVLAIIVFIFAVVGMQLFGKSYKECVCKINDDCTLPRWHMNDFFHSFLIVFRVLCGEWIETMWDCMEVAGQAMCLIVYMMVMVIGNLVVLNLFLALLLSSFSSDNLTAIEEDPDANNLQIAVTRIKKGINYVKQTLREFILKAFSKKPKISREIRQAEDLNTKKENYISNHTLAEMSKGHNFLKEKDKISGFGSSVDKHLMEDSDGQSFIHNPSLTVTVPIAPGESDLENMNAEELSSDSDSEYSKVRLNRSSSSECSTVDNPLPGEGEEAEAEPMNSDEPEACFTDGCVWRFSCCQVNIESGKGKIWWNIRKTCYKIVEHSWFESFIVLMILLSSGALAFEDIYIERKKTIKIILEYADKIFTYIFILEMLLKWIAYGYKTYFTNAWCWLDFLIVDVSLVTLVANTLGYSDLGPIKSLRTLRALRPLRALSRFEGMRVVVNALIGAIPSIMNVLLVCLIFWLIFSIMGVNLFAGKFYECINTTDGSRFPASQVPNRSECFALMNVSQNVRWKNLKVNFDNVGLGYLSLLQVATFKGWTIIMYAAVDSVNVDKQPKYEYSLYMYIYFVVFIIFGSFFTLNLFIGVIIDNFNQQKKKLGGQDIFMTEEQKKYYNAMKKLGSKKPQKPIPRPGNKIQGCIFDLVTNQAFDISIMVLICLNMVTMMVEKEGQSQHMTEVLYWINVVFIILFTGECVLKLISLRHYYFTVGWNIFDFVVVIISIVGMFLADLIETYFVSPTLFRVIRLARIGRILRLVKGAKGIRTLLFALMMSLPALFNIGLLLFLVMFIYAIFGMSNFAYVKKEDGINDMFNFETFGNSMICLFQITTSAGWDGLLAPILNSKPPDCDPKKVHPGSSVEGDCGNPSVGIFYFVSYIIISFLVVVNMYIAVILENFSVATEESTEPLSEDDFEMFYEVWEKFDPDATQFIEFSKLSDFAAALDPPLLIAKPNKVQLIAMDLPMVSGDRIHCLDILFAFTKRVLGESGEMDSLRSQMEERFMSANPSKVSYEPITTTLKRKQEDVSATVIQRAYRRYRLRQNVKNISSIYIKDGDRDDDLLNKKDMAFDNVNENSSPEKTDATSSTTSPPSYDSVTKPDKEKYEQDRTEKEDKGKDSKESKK

`CC[C@@]1(C)NC(=O)N(c2cnc(Oc3ccc(C)c(OC(F)(F)F)c3)nc2)C1=O` [Compound 2, (5R)-5-ethyl-5-methyl-3-[2-({4-methyl-3-[(trifluoromethyl)oxy]phenyl}oxy)-5-pyrimidinyl]-2,4-imidazolidinedione]: the “reversal of cold sensitivity” value amounted to 42% in series [1] (setting [4]); 71% in series [1] (setting [5]); 55% in series [1] (setting [6]); 35% in series [1] (setting [7]); 70% in series [1] (setting [8]); 95% in series [1] (setting [9]). The results for the “reversal of cold sensitivity” value in series [2] (setting [11]), in series [2] (setting [12]) and in series [2] (setting [13]) were 58%, 96% and 81%, respectively. The “reversal of mechanical sensitivity” value in series [1] (setting [4]) was 53%; in series [1] (setting [5]), 47%; in series [1] (setting [7]) it was 31%; in series [1] (setting [8]) it was 72%; in series [1] (setting [9]), 81%; in series [2] (setting [10]), 46%. The “reversal of mechanical sensitivity” value in series [2] (setting [13]) is on record as 67%. Also, the duration of efficacy result in series [1] (Study 1, both doses (30 and 60 mg/kg i.p.)) was “efficacious at 3 hours by not by 6 hours post-dose”. Moreover, the “behavioural changes in the rats (general observations)” value in series [1] (Study 1 of each compound), in series [1] (Study 2) and in series [2] was “no apparent behavioural changes” throughout. Moreover, the “changes in contralateral paw withdrawals and latencies” value in series [1] (Study 2) is reported as “small changes”. The “changes in contralateral paw withdrawals/latencies” value in series [2] (all doses) is on record as “No changes”. For the same compound, on Human Nav1.7 channels, the “effect on Nav1.7-mediated currents” value is “No significant effect”. Besides, the “effect on BK channel currents” value in series [3] is recorded as “No significant effect”.
Regarding `Cc1ccc(Oc2ncc(N3C(=O)NC(C)(C)C3=O)cn2)c2c1OCC21CC1` [Compound 1, 5,5-dimethyl-3-[2-(7-methylspiro[2H-benzofuran-3,1′-cyclopropane]-4-yl)oxypyrimidin-5-yl]imidazolidine-2,4-dione], in series [1] (Study 1, 30 mg/kg i.p.), the “statistical activity of the lower dose” value was “only statistically active against mechanical hyperalgesia”. Also, the “reversal of mechanical sensitivity” value in series [1] (Study 1, 30 mg/kg i.p., 3 hours post-dose) is 51%; in series [1] (setting [14]), 68%; in series [1] (setting [7]) it was 31%; in series [1] (setting [8]), 73%; in series [1] (setting [9]), 81%; in series [2] (setting [10]), 64%. In addition, the “reversal of mechanical sensitivity” value in series [2] (30 mg/kg i.p., 1 hour post-dose) was found to be 74%; in series [2] (setting [12]) it was 92%; in series [2] (60 mg/kg i.p., 6h post-dose), 45%. The “flaccidity (general observation)” value in series [1] (Study 1, 1 and 3 hour post-dose, both doses) is listed as “slightly flaccid”. Moreover, the “reversal of cold sensitivity” value in series [1] (setting [14]) is listed as 125%; in series [1] (setting [6]), 52%; in series [1] (setting [7]), 39%; in series [1] (setting [8]), 68%; in series [1] (setting [9]) it was 76%; in series [2] (setting [10]) it was 45%. The “reversal of cold sensitivity” value in series [2] (setting [11]) stood at 65%; in series [2] (setting [12]), 92%; in series [2] (60 mg/kg i.p., 6h post-dose) it was 45%. For the same compound, the “efficacy at 6 hours post-dose” value in series [1] (Study 1 of each compound, 60 mg/kg i.p., 6 hours post-dose) is “still efficacious”. In addition, the “rats with mild flaccidity” value is given as 1/6 in series [1] (Study 2, 30 mg/kg i.p.) and 2/6 in series [1] (Study 2, 60 mg/kg i.p.). In addition, the “changes in contralateral paw withdrawals and latencies” value in series [1] (Study 2) is reported as “small changes”. Besides, the “rats with noticeable flaccidity” value is recorded as 2/6 in series [2] (30 mg/kg i.p.) and 4/6 in series [2] (60 mg/kg i.p.). The “animals showing the contralateral paw effect” value in series [2] (60 mg/kg i.p.) is listed as 3/6. Moreover, the “changes in contralateral paw withdrawals/latencies” value in series [2] (60 mg/kg i.p.) was “Pronounced increases”. Further, the “effect on Nav1.7-mediated currents” value on Human Nav1.7 channels is listed as “No significant effect”. In addition, in series [3], the “effect on BK channel currents” value is “No significant effect”.
Take `CC[C@H]1NC(=O)N(c2ccc(Oc3ccc(C)c4c3C3(CC3)CO4)nc2)C1=O` [Compound 4, (5R)-5-ethyl-3-[6-(7-methylspiro[2H-benzofuran-3,1′-cyclopropane]-4-yl)oxy-3-pyridyl]imidazolidine-2,4-dione]: in series [2] (setting [15]), the “reversal of cold sensitivity” value is 55% and the “reversal of mechanical sensitivity” value is 50%. Moreover, the “activity at 6 hours post-dose” value in series [2] (6 hours post-dose) was “significant activity still evident”. In series [2] (all doses), the “changes in contralateral paw withdrawals/latencies” value was “no significant changes”. Further, the “behavioural changes in the rats (general observations)” value in series [2] is recorded as “no behavioural changes noted”.
